Assay results reported in patent publication US8198273B2, “Compounds and methods for kinase modulation, and indications therefor” (Plexxikon Inc., priority 2009, dated 2012).

Legend:
[1] = test system: SW620 colon adenocarcinoma cells (wild-type B-RAF); test: SW620 cell growth inhibition (ATPlite); format: cell-based; conditions: Homo sapiens, SW-620, 72 h; SW620, 3 days incubation
Summary of the method: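 ATPlite luminescence, taken as a cell-number measure, gave IC50 values after a 3-day 37° C, 5% CO2 incubation. Compounds were tested as 8-point threefold titrations, highest final concentration 10 μM, added to cells seeded the day before.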

CYP1A2 = molecular target: T1, CYP1A2 (Homo sapiens, UniProt P05177); test: CYP1A2 inhibition (fluorescent substrate); format: in vitro ADME; conditions: CYP1A2, CEC substrate; read-out: Cyp IC50 1A2
T1 sequence (P05177 1-516): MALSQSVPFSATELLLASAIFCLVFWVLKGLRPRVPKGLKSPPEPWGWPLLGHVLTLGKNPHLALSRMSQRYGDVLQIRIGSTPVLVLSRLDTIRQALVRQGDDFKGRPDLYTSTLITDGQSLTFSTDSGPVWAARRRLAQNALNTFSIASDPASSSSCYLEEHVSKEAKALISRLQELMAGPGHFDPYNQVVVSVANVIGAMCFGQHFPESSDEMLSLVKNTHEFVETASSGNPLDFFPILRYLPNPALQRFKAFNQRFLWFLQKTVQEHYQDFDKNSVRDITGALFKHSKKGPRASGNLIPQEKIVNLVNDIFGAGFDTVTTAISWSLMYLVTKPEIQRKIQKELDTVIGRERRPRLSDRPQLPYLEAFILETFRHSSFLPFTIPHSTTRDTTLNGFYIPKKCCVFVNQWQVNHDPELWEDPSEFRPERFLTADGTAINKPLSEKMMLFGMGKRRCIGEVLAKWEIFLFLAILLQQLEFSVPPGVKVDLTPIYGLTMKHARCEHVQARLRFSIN
Procedure: (§1) CYP (Cytochrome P450) enzymes are the major drug metabolizing enzymes present in the liver. The inhibition of CYP enzyme activity (IC50) for each of CYP1A2, CYP2C19, CYP2C9, CYP2D6, CYP3A4(BFC) and CYP3A4(BQ) is determined for compounds, where inhibition of metabolism of a known substrate leads to a decrease in the fluorescence of the metabolized product. The fluorescence of the product is monitored as a function of compound concentration.
(§2) Compounds are dissolved in dimethyl sulfoxide to a concentration of 100 mM. These are diluted 1 μL into 82 μL of acetonitrile. […] These are then serially diluted 1:1 (160 μL to 160 μL co-factor mix) for a total of 10 points. A 10 μL aliquot of this final mixture is dispensed into 384 well assay plates and incubated for 10 minutes at 37° C. […] Assay plates are incubated at 37° C. […] The signal versus compound concentration is used to determine the IC50. The enzymes and substrates for this assay are obtained from BD Biosciences.

CYP2C19 = CYP2C19 (Homo sapiens, UniProt P33261); test: CYP2C19 inhibition (fluorescent substrate); format: in vitro ADME; conditions: CYP2C19, CEC substrate; read-out: Cyp IC50 2C19
Sequence of CYP2C19 (P33261 whole entry): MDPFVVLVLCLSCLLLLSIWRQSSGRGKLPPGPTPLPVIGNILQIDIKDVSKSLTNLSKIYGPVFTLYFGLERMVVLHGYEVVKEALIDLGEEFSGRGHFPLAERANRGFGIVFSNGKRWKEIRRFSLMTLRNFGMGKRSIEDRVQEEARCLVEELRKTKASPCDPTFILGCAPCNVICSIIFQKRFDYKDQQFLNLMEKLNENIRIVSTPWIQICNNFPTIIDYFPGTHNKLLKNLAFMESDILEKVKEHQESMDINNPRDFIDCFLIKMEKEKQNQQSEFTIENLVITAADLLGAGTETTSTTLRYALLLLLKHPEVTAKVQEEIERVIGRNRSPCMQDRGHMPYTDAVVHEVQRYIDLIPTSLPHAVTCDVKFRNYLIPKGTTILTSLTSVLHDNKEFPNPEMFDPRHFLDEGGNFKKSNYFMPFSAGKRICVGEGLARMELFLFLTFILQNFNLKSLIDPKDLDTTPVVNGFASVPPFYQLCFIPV
Procedure: as §1, §2

CYP2C9 = CYP2C9 (Homo sapiens, UniProt P11712); test: CYP2C9 inhibition (fluorescent substrate); format: in vitro ADME; conditions: CYP2C9, MFC substrate; read-out: Cyp IC50 2C9
Sequence of CYP2C9 (P11712 whole entry): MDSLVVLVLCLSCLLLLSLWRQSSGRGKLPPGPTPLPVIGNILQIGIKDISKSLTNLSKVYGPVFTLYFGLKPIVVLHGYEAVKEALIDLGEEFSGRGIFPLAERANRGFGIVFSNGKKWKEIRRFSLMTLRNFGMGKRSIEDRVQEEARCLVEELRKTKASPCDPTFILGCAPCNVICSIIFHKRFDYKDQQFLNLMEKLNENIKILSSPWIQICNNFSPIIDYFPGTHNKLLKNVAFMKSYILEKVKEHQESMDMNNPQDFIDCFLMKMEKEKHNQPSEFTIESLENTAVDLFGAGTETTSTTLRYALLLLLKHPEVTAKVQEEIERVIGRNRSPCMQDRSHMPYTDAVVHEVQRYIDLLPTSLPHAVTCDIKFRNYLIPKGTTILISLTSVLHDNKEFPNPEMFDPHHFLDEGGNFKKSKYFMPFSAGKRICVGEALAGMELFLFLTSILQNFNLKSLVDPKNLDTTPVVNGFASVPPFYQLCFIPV
Procedure: as §1, §2

CYP2D6 = CYP2D6 (Homo sapiens, UniProt P10635); test: CYP2D6 inhibition (fluorescent substrate); format: in vitro ADME; conditions: CYP2D6, AMMC substrate; read-out: Cyp IC50 2D6
Sequence of CYP2D6 (P10635 whole entry): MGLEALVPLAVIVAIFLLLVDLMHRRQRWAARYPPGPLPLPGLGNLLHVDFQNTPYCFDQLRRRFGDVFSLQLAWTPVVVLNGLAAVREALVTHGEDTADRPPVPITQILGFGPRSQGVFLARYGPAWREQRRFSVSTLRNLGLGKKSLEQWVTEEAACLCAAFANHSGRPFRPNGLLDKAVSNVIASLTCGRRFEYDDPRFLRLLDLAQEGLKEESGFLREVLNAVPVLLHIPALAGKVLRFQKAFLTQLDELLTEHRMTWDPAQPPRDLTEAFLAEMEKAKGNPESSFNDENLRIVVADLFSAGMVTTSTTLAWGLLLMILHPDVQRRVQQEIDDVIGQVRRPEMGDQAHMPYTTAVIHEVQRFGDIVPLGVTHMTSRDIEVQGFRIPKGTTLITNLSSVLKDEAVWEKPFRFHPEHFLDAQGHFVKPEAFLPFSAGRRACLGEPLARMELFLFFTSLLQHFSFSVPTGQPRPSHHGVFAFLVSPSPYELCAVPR
Procedure: as §1, §2

| IC50 [1] [µM] | IC50 (CYP1A2) [µM] | IC50 (CYP2C19) [µM] | IC50 (CYP2C9) [µM] | IC50 (CYP2D6) [µM] | Compound |
| --- | --- | --- | --- | --- | --- |
| > 10 | > 10 | 5 to 10 | < 5 | > 10 | CCCS(=O)(=O)Nc1ccc(F)c(C(=O)c2c[nH]c3ncc(-c4cnc(SC)nc4)cc23)c1F [P-2189, Propane-1-sulfonic acid {2,4-difluoro-3-[5-(2-methylsulfanyl-pyrimidin-5-yl)-1H-pyrrolo[2,3-b]pyridine-3-carbonyl]-phenyl}-amide] |
| > 10 | > 10 | 5 to 10 | 5 to 10 | > 10 | CCCS(=O)(=O)Nc1ccc(F)c(C(=O)c2c[nH]c3ncc(C#CCOC)cc23)c1F [P-2239, Propane-1-sulfonic acid {2,4-difluoro-3-[5-(3-methoxy-prop-1-ynyl)-1H-pyrrolo[2,3-b]pyridine-3-carbonyl]-phenyl}-amide] |
| – | > 10 | > 10 | > 10 | > 10 | CCCS(=O)(=O)Nc1ccc(F)c(C(=O)c2c[nH]c3ncc(-c4cnc(OC)nc4OC)cc23)c1F [P-2199, Propane-1-sulfonic acid {3-[5-(2,4-dimethoxy-pyrimidin-5-yl)-1H-pyrrolo[2,3-b]pyridine-3-carbonyl]-2,4-difluoro-phenyl}-amide] |
| – | > 10 | > 10 | > 10 | > 10 | CCCS(=O)(=O)Nc1ccc(F)c(C(=O)c2c[nH]c3ncc(-c4ccc(S(N)(=O)=O)cc4)cc23)c1F [P-2194, 4-{3-[2,6-Difluoro-3-(propane-1-sulfonylamino)-benzoyl]-1H-pyrrolo[2,3-b]pyridin-5-yl}-benzenesulfonamide] |
| – | > 10 | > 10 | > 10 | > 10 | CCCS(=O)(=O)Nc1ccc(F)c(C(=O)c2c[nH]c3ncc(-c4cnc(N5CCOCC5)nc4)cc23)c1F [P-2197, Propane-1-sulfonic acid {2,4-difluoro-3-[5-(2-morpholin-4-yl-pyrimidin-5-yl)-1H-pyrrolo[2,3-b]pyridine-3-carbonyl]-phenyl}-amide] |
| < 20 | > 10 | – | > 10 | > 10 | CCCS(=O)(=O)Nc1ccc(F)c(C(=O)c2c[nH]c3ncc(-c4ccc(S(=O)(=O)CC)cc4)cc23)c1F [P-2218, Propane-1-sulfonic acid {3-[5-(4-ethanesulfonyl-phenyl)-1H-pyrrolo[2,3-b]pyridine-3-carbonyl]-2,4-difluoro-phenyl}-amide] |
| – | > 10 | > 10 | 5 to 10 | > 10 | CCCS(=O)(=O)Nc1cccc(C(=O)c2c[nH]c3ncc(-c4cnc(N(C)C)nc4)cc23)c1F [P-2408, Propane-1-sulfonic acid {3-[5-(2-dimethylamino-pyrimidin-5-yl)-1H-pyrrolo[2,3-b]pyridine-3-carbonyl]-2-fluoro-phenyl}-amide] |

Further lines, the compound ahead of its results:

| Compound | IC50 [1] [µM] | IC50 (CYP1A2) [µM] | IC50 (CYP2C19) [µM] | IC50 (CYP2C9) [µM] | IC50 (CYP2D6) [µM] |
| --- | --- | --- | --- | --- | --- |
| COc1ncc(-c2cnc3[nH]cc(C(=O)c4c(F)ccc(NS(=O)(=O)c5cc(F)ccc5F)c4F)c3c2)cn1 [P-2042, N-{2,4-Difluoro-3-[5-(2-methoxy-pyrimidin-5-yl)-1H-pyrrolo[2,3-b]pyridine-3-carbonyl]-phenyl}-2,5-difluoro-benzenesulfonamide] | > 10 | > 10 | > 10 | 5 to 10 | > 10 |
| CCCS(=O)(=O)Nc1ccc(F)c(C(=O)c2c[nH]c3ncc(-c4cnn(CCN5CCOCC5)c4)cc23)c1F [P-2177, Propane-1-sulfonic acid (2,4-difluoro-3-{5-[1-(2-morpholin-4-yl-ethyl)-1H-pyrazol-4-yl]-1H-pyrrolo[2,3-b]pyridine-3-carbonyl}-phenyl)-amide] | < 20 | > 10 | 5 to 10 | < 5 | > 10 |
| CCCS(=O)(=O)Nc1ccc(F)c(C(=O)c2c[nH]c3ncc(-c4ccc(NS(C)(=O)=O)cc4)cc23)c1F [P-2165, Propane-1-sulfonic acid {2,4-difluoro-3-[5-(4-methanesulfonylamino-phenyl)-1H-pyrrolo[2,3-b]pyridine-3-carbonyl]-phenyl}-amide] | < 10 | > 10 | 5 to 10 | 5 to 10 | > 10 |
| COc1ccnc2[nH]cc(C(=O)c3c(F)ccc(NS(=O)(=O)c4cccc(F)c4)c3F)c12 [P-2023, N-[2,4-Difluoro-3-(4-methoxy-1H-pyrrolo[2,3-b]pyridine-3-carbonyl)-phenyl]-3-fluoro-benzenesulfonamide] | – | > 10 | > 10 | 5 to 10 | > 10 |
| CCCS(=O)(=O)Nc1ccc(F)c(C(=O)c2c[nH]c3ncc(-c4ccc(C(=O)NC5CC5)nc4)cc23)c1F [P-2181, 5-{3-[2,6-Difluoro-3-(propane-1-sulfonylamino)-benzoyl]-1H-pyrrolo[2,3-b]pyridin-5-yl}-pyridine-2-carboxylic acid cyclopropylamide] | – | > 10 | > 10 | < 5 | > 10 |
| CCCS(=O)(=O)Nc1ccc(F)c(C(=O)c2c[nH]c3ncc(-c4ccc(OC)nc4OC)cc23)c1F [P-2184, Propane-1-sulfonic acid {3-[5-(2,6-dimethoxy-pyridin-3-yl)-1H-pyrrolo[2,3-b]pyridine-3-carbonyl]-2,4-difluoro-phenyl}-amide] | – | > 10 | > 10 | 5 to 10 | > 10 |
| O=C(c1c(F)ccc(NS(=O)(=O)c2c(F)cccc2F)c1F)c1c[nH]c2ncc(Cl)cc12 [P-2003, N-[3-(5-Chloro-1H-pyrrolo[2,3-b]pyridine-3-carbonyl)-2,4-difluoro-phenyl]-2,6-difluoro-benzenesulfonamide] | – | > 10 | > 10 | > 10 | > 10 |
| CCCS(=O)(=O)Nc1ccc(F)c(C(=O)c2c[nH]c3ncc(-c4cncc(S(C)(=O)=O)c4)cc23)c1F [P-2188, Propane-1-sulfonic acid {2,4-difluoro-3-[5-(5-methanesulfonyl-pyridin-3-yl)-1H-pyrrolo[2,3-b]pyridine-3-carbonyl]-phenyl}-amide] | – | > 10 | > 10 | 5 to 10 | > 10 |
| CCCS(=O)(=O)Nc1ccc(F)c(C(=O)c2c[nH]c3ncc(-c4ccc(C(=O)NC)nc4)cc23)c1F [P-2180, 5-{3-[2,6-Difluoro-3-(propane-1-sulfonylamino)-benzoyl]-1H-pyrrolo[2,3-b]pyridin-5-yl}-pyridine-2-carboxylic acid methylamide] | – | > 10 | 5 to 10 | < 5 | > 10 |
| N#Cc1cnc2[nH]cc(C(=O)c3cccc(NS(=O)(=O)c4ccccc4)c3F)c2c1 [P-2056, N-[3-(5-Cyano-1H-pyrrolo[2,3-b]pyridine-3-carbonyl)-2-fluoro-phenyl]-benzenesulfonamide] | < 5 | > 10 | > 10 | – | > 10 |
| Cc1cnc2[nH]cc(C(=O)c3c(F)ccc(NS(=O)(=O)c4cccnc4)c3F)c2c1 [P-2069, Pyridine-3-sulfonic acid [2,4-difluoro-3-(5-methyl-1H-pyrrolo[2,3-b]pyridine-3-carbonyl)-phenyl]-amide] | – | > 10 | > 10 | < 5 | > 10 |
| Cc1cnc2[nH]cc(C(=O)c3c(F)ccc(NS(=O)(=O)c4c(F)cccc4F)c3F)c2c1 [P-2024, N-[2,4-Difluoro-3-(5-methyl-1H-pyrrolo[2,3-b]pyridine-3-carbonyl)-phenyl]-2,6-difluoro-benzenesulfonamide] | – | > 10 | > 10 | > 10 | > 10 |
| CCCS(=O)(=O)Nc1ccc(F)c(C(=O)c2c[nH]c3ncc(-c4ccc(C(=O)NCC)nc4)cc23)c1F [P-2151, 5-{3-[2,6-Difluoro-3-(propane-1-sulfonylamino)-benzoyl]-1H-pyrrolo[2,3-b]pyridin-5-yl}-pyridine-2-carboxylic acid ethylamide] | – | > 10 | > 10 | 5 to 10 | > 10 |
